The source of these data is patent US9409908B2 (priority 2012, dated 2016).

Where a name gives a salt, the structure may show the parent alone. Where only a bound is given, the exact number is not on record here.

Assay [1] deals with purified human Factor XIa (Homo sapiens (Human), UniProt P03951). The assay can be described thus: biochemical. The class given is biochemical. As to conditions: read-out: Factor XIa Ki.
For assay [2], the target named is purified human plasma kallikrein (Homo sapiens (Human), UniProt P03952). Put plainly: biochemical. Conditions: read-out: Plasma Kallikrein Ki. The class given is biochemical.
Sequence of purified human plasma kallikrein (P03952 whole entry, looked up): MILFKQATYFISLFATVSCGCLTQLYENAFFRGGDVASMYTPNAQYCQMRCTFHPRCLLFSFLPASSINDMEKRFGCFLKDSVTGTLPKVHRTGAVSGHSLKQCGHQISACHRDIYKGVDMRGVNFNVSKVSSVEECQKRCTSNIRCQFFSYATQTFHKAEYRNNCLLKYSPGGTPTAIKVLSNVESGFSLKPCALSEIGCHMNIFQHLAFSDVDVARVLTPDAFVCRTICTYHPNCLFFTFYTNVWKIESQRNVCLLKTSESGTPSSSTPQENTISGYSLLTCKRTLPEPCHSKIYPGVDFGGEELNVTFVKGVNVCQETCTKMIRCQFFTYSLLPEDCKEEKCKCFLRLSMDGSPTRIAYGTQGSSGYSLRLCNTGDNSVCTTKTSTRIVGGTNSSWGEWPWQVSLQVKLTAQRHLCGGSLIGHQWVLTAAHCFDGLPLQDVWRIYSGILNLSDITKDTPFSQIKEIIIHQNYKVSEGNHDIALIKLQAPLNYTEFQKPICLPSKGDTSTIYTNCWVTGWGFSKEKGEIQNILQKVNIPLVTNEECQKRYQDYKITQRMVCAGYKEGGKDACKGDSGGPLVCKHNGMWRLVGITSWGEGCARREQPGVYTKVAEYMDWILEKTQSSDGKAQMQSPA
Sequence of purified human plasma kallikrein (P03952 whole entry partner, looked up): as the sequence (P03952 whole entry, looked up) above

Sequence of purified human Factor XIa (P03951 whole entry, looked up): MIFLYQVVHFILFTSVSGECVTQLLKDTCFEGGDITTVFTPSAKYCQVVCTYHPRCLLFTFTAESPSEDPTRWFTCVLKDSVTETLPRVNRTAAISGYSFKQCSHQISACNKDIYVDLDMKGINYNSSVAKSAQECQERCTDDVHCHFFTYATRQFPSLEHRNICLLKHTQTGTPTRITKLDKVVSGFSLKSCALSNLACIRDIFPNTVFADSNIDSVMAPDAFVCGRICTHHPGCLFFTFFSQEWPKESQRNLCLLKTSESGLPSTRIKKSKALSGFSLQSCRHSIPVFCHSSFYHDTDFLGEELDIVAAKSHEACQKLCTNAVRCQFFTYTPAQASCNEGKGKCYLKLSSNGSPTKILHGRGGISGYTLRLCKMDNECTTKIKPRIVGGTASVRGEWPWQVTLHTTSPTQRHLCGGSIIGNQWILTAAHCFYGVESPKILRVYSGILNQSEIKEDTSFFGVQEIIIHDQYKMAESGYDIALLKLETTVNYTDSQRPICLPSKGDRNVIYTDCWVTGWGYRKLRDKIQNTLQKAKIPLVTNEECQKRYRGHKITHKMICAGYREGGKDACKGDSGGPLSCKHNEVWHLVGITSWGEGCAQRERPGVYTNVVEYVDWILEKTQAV
Sequence of purified human Factor XIa (P03951 whole entry partner, looked up): as the sequence (P03951 whole entry, looked up) above

On to `C[C@@H]1CCC[C@H](N2CCC(c3c(C(F)(F)F)ccc(Cl)c3F)=CC2=O)c2cc(ccn2)-c2cc(C(=O)O)ccc2NC1=O` [Example 187, (10R,14S)-14-{4-[3-chloro-2-fluoro-6-(trifluoromethyl)phenyl]-6-oxo-1,2,3,6-tetrahydropyridin-1-yl}-10-methyl-9-oxo-8,16-diazatricyclo[13.3.1.0^2,7]nonadeca-1(19),2(7),3,5,15,17-hexaene-4-carboxylic acid], for which the Ki came to 0.00044 µM in assay [1] and 0.0174 µM in assay [2].

For the compound `C[C@@H]1CCC[C@H](N2CCC(c3c(F)ccc(Cl)c3F)=CC2=O)c2cc(ccn2)-c2ccc(Nc3ccncc3)cc2NC1=O` [Example 89, (10R,14S)-14-[4-(3-Chloro-2,6-difluorophenyl)-6-oxo-1,2,3,6-tetrahydropyridin-1-yl]-10-methyl-5-[(pyridin-4-yl)amino]-8,16-diazatricyclo[13.3.1.0^2,7]nonadeca-1(19),2(7),3,5,15,17-hexaen-9-one, 2 TFA salt], the results for the Ki in assay [1] and in assay [2] were 0.00243 µM and 0.005 µM, respectively.

Consider `C[C@@H]1CCC[C@H](N2CCC(c3c(Br)ccc(Cl)c3F)=CC2=O)c2cc(ccn2)-c2c(ccc(F)c2F)NC1=O` [Example 204, (10R,14S)-14-[4-(6-bromo-3-chloro-2-fluorophenyl)-6-oxo-1,2,3,6-tetrahydropyridin-1-yl]-3,4-difluoro-10-methyl-8,16-diazatricyclo[13.3.1.0^2,7]nonadeca-1(19),2(7),3,5,15,17-hexaen-9-one, TFA salt], for which the results for the Ki in assay [1] and in assay [2] were 0.00446 µM and 0.016 µM, respectively.

Turning to `C[C@@H]1CCC[C@H](N2CCC(c3c(C#N)ccc(Cl)c3F)=CC2=O)c2cc(ccn2)-c2ccccc2NC1=O` [Example 49, 4-Chloro-3-fluoro-2-{1-[(10R,14S)-10-methyl-9-oxo-8,16-diazatricyclo[13.3.1.0^2,7]nonadeca-1(19),2,4,6,15,17-hexaen-14-yl]-6-oxo-1,2,3,6-tetrahydropyridin-4-yl}benzonitrile, TFA salt], the results for the Ki in assay [1] and in assay [2] were 0.00106 µM and 0.003 µM, respectively.

In the case of `C[C@@H]1CCC[C@H](N2CCC(c3c(F)ccc(Cl)c3F)=CC2=O)c2cc(ccn2)-c2cc3c(cc2NC1=O)NC(=O)CC3` [Example 86, (14R,18S)-18-[4-(3-Chloro-2,6-difluorophenyl)-6-oxo-1,2,3,6-tetrahydropyridin-1-yl]-14-methyl-8,12,20-triazatetracyclo[17.3.1.0^2,11.0^4,9]tricosa-1(23),2(11),3,9,19,21-hexaene-7,13-dione, TFA salt], the Ki was found to be 0.00072 µM in assay [1] and 0.001 µM in assay [2].

In the case of `C[C@@H]1CCC[C@H](N2CCC(c3cccc(Cl)c3F)=CC2=O)c2cc(ccn2)-c2ccccc2NC1=O` [Example 47, (10R,14S)-14-[4-(3-Chloro-2-fluorophenyl)-6-oxo-1,2,3,6-tetrahydropyridin-1-yl]-10-methyl-8,16-diazatricyclo[13.3.1.0^2,7]nonadeca-1(19),2,4,6,15,17-hexaen-9-one, TFA salt], the Ki was 0.0863 µM in assay [1] and 0.066 µM in assay [2].

For `COC(=O)c1ccc2c(c1)-c1cccc(c1)[C@@H](N1CCC(c3c(F)ccc(Cl)c3F)=CC1=O)CCC[C@@H](C)C(=O)N2` [Example 164, Methyl (10R,14S)-14-[4-(3-chloro-2,6-difluorophenyl)-6-oxo-1,2,3,6-tetrahydropyridin-1-yl]-10-methyl-9-oxo-8-azatricyclo[13.3.1.0^2,7]nonadeca-1(19),2,4,6,15,17-hexaene-4-carboxylate], the Ki is more than 0.398 µM in assay [1] and 0.442 µM in assay [2].

Take `COC(=O)Nc1ccc2c(c1)NC(=O)[C@H](C)C(=O)CC[C@H](N1CCC(c3c(F)ccc(Cl)c3F)=CC1=O)c1cc-2ccn1` [Example 136, Methyl N-[(10R,14S)-14-[4-(3-chloro-2,6-difluorophenyl)-6-oxo-1,2,3,6-tetrahydropyridin-1-yl]-10-methyl-9,11-dioxo-8,16-diazatricyclo[13.3.1.0^2,7]nonadeca-1(19),2(7),3,5,15,17-hexaen-5-yl]carbamate]: the Ki in assay [1] amounted to 0.0453 µM; in assay [2] it was 0.118 µM.

For `COC(=O)c1ccc2c(c1)-c1cccc(c1)[C@@H](N1CCC(c3c(C#N)ccc(Cl)c3F)=CC1=O)CCC[C@@H](C)C(=O)N2` [Example 170, Methyl (10R,14S)-14-[4-(3-chloro-6-cyano-2-fluorophenyl)-6-oxo-1,2,3,6-tetrahydropyridin-1-yl]-10-methyl-9-oxo-8-azatricyclo[13.3.1.0^2,7]nonadeca-1(18),2,4,6,15(19),16-hexaene-4-carboxylate], the figures for the Ki in assay [1] and in assay [2] were 0.0466 µM and 0.00773 µM, respectively.

On to `C[C@@H]1CCC[C@H](N2CCC(c3c(F)ccc(Cl)c3F)=CC2=O)c2cc(ccn2)-c2cc(Cl)c(O)cc2NC1=O` [Example 19, (10R,14S)-4-Chloro-14-[4-(3-chloro-2,6-difluorophenyl)-6-oxo-1,2,3,6-tetrahydropyridin-1-yl]-5-hydroxy-10-methyl-8,16-diazatricyclo[13.3.1.0^2,7]nonadeca-1(19),2,4,6,15,17-hexaen-9-one, TFA salt], for which the Ki in assay [1] was found to be 0.0155 µM; in assay [2], 0.052 µM.

On to `C[C@@H]1CCC[C@H](N2CCC(c3c(F)ccc(Cl)c3F)=CC2=O)c2cc(ccn2)-c2ccc(NC3O[C@H](C(=O)O)[C@@H](O)[C@H](O)[C@H]3O)cc2NC1=O` (stereo partly drawn) [Example 128, (2S,3S,4S,5R)-6-{[(10R,14S)-14-[4-(3-chloro-2,6-difluorophenyl)-6-oxo-1,2,3,6-tetrahydropyridin-1-yl]-10-methyl-9-oxo-8,16-diazatricyclo[13.3.1.0^2,7]nonadeca-1(19),2,4,6,15,17-hexaen-5-yl]amino}-3,4,5-trihydroxyoxane-2-carboxylic acid], for which the Ki in assay [1] stood at 0.0103 µM; in assay [2] it was 0.0255 µM.

Consider `COC(=O)c1ccc2c(c1)-c1ccnc(c1)[C@@H](N1CCC(c3c(C(F)(F)F)ccc(Cl)c3F)=CC1=O)CCC[C@@H](C)C(=O)N2` [Example 186, Methyl (10R,14S)-14-{4-[3-chloro-2-fluoro-6-(trifluoromethyl)phenyl]-6-oxo-1,2,3,6-tetrahydropyridin-1-yl}-10-methyl-9-oxo-8,16-diazatricyclo[13.3.1.0^2,7]nonadeca-1(19),2(7),3,5,15,17-hexaene-4-carboxylate], for which the Ki amounted to 0.0579 µM in assay [1] and 0.0605 µM in assay [2].

`C[C@@H]1CCC[C@H](N2CCC(c3c(F)ccc(Cl)c3F)=CC2=O)c2cc(ccn2)-c2ccccc2NC1=O` [Example 13, (10R,14S)-14-[4-(3-Chloro-2,6-difluorophenyl)-6-oxo-1,2,3,6-tetrahydropyridin-1-yl]-10-methyl-8,16-diazatricyclo[13.3.1.0^2,7]nonadeca-1(19),2,4,6,15,17-hexaen-9-one]: the Ki in assay [1] is 0.0137 µM; in assay [2], 0.008 µM.

On to `C[C@@H]1CCC[C@H](N2CCC(c3c(F)ccc(Cl)c3F)=CC2=O)c2cc(ccn2)-c2cn[nH]c2NC1=O` [Example 221, 13-[4-(3-chloro-2,6-difluorophenyl)-6-oxo-1,2,3,6-tetrahydropyridin-1-yl]-9-methyl-4,5,7,15-tetraazatricyclo[12.3.1.0^2,6]octadeca-1(18),2(6),3,14,16-pentaen-8-one, 2TFA salt], for which the Ki is more than 0.417 µM in assay [1] and 1.32 µM in assay [2].

As to `COC(=O)Nc1ccc2c(c1)NC(=O)[C@H](C)C(F)CC[C@H](N1CCC(c3c(F)ccc(Cl)c3F)=CC1=O)c1cc-2ccn1` (stereo partly drawn) [Example 180, Methyl N-[(10S,14S)-14-[4-(3-chloro-2,6-difluorophenyl)-6-oxo-1,2,3,6-tetrahydropyridin-1-yl]-11-fluoro-10-methyl-9-oxo-8,16-diazatricyclo[13.3.1.0^2,7]nonadeca-1(19),2(7),3,5,15,17-hexaen-5-yl]carbamate], the figures for the Ki in assay [1] and in assay [2] were 0.00018 µM and 0.00242 µM, respectively.

As for `C[C@@H]1CCC[C@H](N2CCC(c3c(F)ccc(Cl)c3F)=CC2=O)c2cc(ccn2)-c2cc3c(cc2NC1=O)NC(=O)C3` [Example 84, (13R,17S)-17-[4-(3-Chloro-2,6-difluorophenyl)-6-oxo-1,2,3,6-tetrahydropyridin-1-yl]-13-methyl-7,11,19-triazatetracyclo[16.3.1.0^2,10.0^4,8]docosa-1(22),2,4(8),9,18,20-hexaene-6,12-dione, TFA salt], the Ki came to 0.00268 µM in assay [1] and 0.016 µM in assay [2].

Take `C[C@@H]1CCC[C@H](N2CCC(c3c(C#N)ccc(C#N)c3F)=CC2=O)c2cc(ccn2)-c2c(ccc(F)c2F)NC1=O` [Example 209, 2-{1-[(10R,14S)-3,4-difluoro-10-methyl-9-oxo-8,16-diazatricyclo[13.3.1.0^2,7]nonadeca-1(19),2(7),3,5,15,17-hexaen-14-yl]-6-oxo-1,2,3,6-tetrahydropyridin-4-yl}-3-fluorobenzene-1,4-dicarbonitrile, TFA salt]: the values for the Ki in assay [1] and in assay [2] were 0.12 µM and 0.457 µM, respectively.

Turning to `C[C@@H]1CCC[C@H](N2CCC(c3c(C#N)ccc(Cl)c3F)=CC2=O)c2cc(ccn2)-c2c(ccc(F)c2F)NC1=O` [Example 208, 4-chloro-2-{1-[(10R,14S)-3,4-difluoro-10-methyl-9-oxo-8,16-diazatricyclo[13.3.1.0^2,7]nonadeca-1(19),2(7),3,5,15,17-hexaen-14-yl]-6-oxo-1,2,3,6-tetrahydropyridin-4-yl}-3-fluorobenzonitrile, TFA salt], the Ki amounted to 0.001 µM in assay [1] and 0.0031 µM in assay [2].

Consider `C[C@@H]1CCC[C@H](N2CCC(c3c(Br)ccc(Cl)c3F)=CC2=O)c2cc(ccn2)-c2cc(F)ccc2NC1=O` [Example 147, (10R,14S)-14-[4-(6-bromo-3-chloro-2-fluorophenyl)-6-oxo-1,2,3,6-tetrahydropyridin-1-yl]-4-fluoro-10-methyl-8,16-diazatricyclo[13.3.1.0^2,7]nonadeca-1(19),2(7),3,5,15,17-hexaen-9-one], for which the Ki in assay [1] was 0.00359 µM; in assay [2], 0.00751 µM.

The Ki is a measure of affinity in units of concentration, obtained from inhibition or displacement.
